Reference: paper PMC7012011, “In vitro inhibitory effects of dihydromyricetin on human liver cytochrome P450 enzymes” (Pharmaceutical Biology, 2017)

What was measured:
CYP2E1 [1] = target: T1, CYP2E1 (Homo sapiens, UniProt P05181); experiment: Time-dependent inhibition study of CYP2E1 in HLMs; assay type: in vitro ADME; details: DHM 20 μM, pre-incubation with HLM and NADPH for 30 min
T1 construct: CYP2E1 catalyzed reactions (chlorzoxazone 6-hydroxylation) in pooled HLM; from tissue; host or cells: pooled human liver microsomes
Method: (§1) To determine whether DHM could inhibit the activity of CYP3A4, CYP2E1 and CYP2D6 in a time-dependent manner, DHM (20 μM) was pre-incubated with HLMs (1 mg/mL) in the presence of an NADPH-generating system for 30 min at 37 °C. After incubation, an aliquot (20 μL) was transferred to another incubation tube (a final volume of 200 μL) containing an NADPH-generating system and probe substrates whose final concentrations were approximate to Km. Then, further incubations were performed to measure the residual activity. After being incubated for 10 and 30 min, the reactions were terminated by adding a 100 μL acetonitrile internal standard mix and then placed on ice; the corresponding metabolites was determined by HPLC.

CYP2C8 = target: T2, CYP2C8 (Homo sapiens, UniProt P10632); experiment: CYP2C8 inhibition, paclitaxel 6α-hydroxylation in pooled HLMs; assay type: in vitro ADME; details: DHM 100 μM
T2 construct: from tissue; host or cells: pooled human liver microsomes
T2 sequence (P10632 1-490): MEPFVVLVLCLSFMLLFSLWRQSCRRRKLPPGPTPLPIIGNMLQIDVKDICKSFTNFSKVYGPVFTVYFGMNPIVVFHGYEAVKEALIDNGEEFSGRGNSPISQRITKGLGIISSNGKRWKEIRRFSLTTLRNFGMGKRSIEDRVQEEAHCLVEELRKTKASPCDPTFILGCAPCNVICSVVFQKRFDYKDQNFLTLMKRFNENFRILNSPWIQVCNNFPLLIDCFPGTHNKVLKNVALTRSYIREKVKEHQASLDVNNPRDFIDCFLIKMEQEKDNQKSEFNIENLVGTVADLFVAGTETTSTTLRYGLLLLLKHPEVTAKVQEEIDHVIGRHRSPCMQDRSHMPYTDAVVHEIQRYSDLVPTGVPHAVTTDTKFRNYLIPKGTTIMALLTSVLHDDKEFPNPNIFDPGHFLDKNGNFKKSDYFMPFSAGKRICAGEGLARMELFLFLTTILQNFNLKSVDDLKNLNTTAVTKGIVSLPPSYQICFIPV
Method: (§2) All incubations were performed in triplicate, and the mean values were utilized. The typical incubation systems contained 100 mM potassium phosphate buffer (pH 7.4), NADPH-generating system (1 mM NADP^+, 10 mM glucose-6-phosphate, 1 U/mL of glucose-6-phosphate dehydrogenase, and 4 mM MgCl2), the appropriate concentration of HLM, a corresponding probe substrate and DHM (or positive inhibitor for different probe reactions) in a final volume of 200 μL.
(§3) The concentration of DHM was 100 μM, and the positive inhibitor concentrations were as follows: 10 μM furafylline for CYP1A2, 1 μM ketoconazole for CYP3A4, 10 μM tranylcypromine for CYP2A6, 50 μM clomethiazole for CYP2E1, 10 μM quinidine for CYP2D6, 10 μM sulphaphenazole for CYP2C9, 50 μM tranylcypromine for CYP2C19 and 5 μM montelukast for CYP2C8. Probe substrates, positive inhibitors (except for dextromethorphan and quinidine which were dissolved in water) and DHM were dissolved in methanol, with a final concentration of 1% (v/v), and 1% neat methanol was added to the incubations without inhibitor. […] The instrument used in this study were Agilent 1260 series instrument with DAD and FLD detector (Agilent Technologies, Palo Alto, CA), and the quantitative assay for the corresponding metabolites was performed as previously reported by us (Zhang et al. [2016]). […]

CYP3A4 [2] = target: T3, CYP3A4 (Homo sapiens, UniProt P08684); experiment: CYP3A4 inhibition, testosterone 6β-hydroxylation in pooled HLMs; assay type: in vitro ADME
T3 construct: CYP3A4 catalyzed reactions (testosterone 6β-hydroxylation) in pooled HLM; from tissue; host or cells: pooled human liver microsomes
Method: as §2
(§4) The concentration of DHM was 100 μM, and the positive inhibitor concentrations were as follows: 10 μM furafylline for CYP1A2, 1 μM ketoconazole for CYP3A4, 10 μM tranylcypromine for CYP2A6, 50 μM clomethiazole for CYP2E1, 10 μM quinidine for CYP2D6, 10 μM sulphaphenazole for CYP2C9, 50 μM tranylcypromine for CYP2C19 and 5 μM montelukast for CYP2C8. Probe substrates, positive inhibitors (except for dextromethorphan and quinidine which were dissolved in water) and DHM were dissolved in methanol, with a final concentration of 1% (v/v), and 1% neat methanol was added to the incubations without inhibitor. There was a 3-min preincubation period (at 37 °C) before the reaction was initiated by adding a NADPH-generating system. The reaction was terminated by adding a 100 μL acetonitrile (10% trichloroacetic acid for CYP2A6) internal standard mix, and the solution was placed on ice. The mixture was centrifuged at 12,000 rpm for 10 min, and an aliquot (50 μL) of supernatant was transferred for HPLC analysis. The instrument used in this study were Agilent 1260 series instrument with DAD and FLD detector (Agilent Technologies, Palo Alto, CA), and the quantitative assay for the corresponding metabolites was performed as previously reported by us (Zhang et al. [2016]).
(§5) A 100 μM DHM was used to initially screen for its direct inhibitory effects toward different human CYP isoforms. […] The residual activity of the CYP isoforms were measured by adding different concentrations of DHM (0–100 μM), and then the IC50 values were calculated. […]
(§6) The enzyme kinetic parameters for the probe reaction were estimated from the best fit line using least-squares linear regression of the inverse substrate concentration versus the inverse velocity (Lineweaver–Burk plots), and the mean values were used to calculate Vmax and Km. Inhibition data from the experiments that were conducted using multiple compound concentrations were represented by Dixon plots, and inhibition constant (Ki) values were calculated using non-linear regression according to the following equation: v=(VmaxS)/(Km(1+I/Ki)+S), where I is the concentration of the compound, Ki is the inhibition constant, S is the concentration of the substrate and Km is the substrate concentration at half the maximum velocity (Vmax) of the reaction. […]

CYP2E1 [3] = target: T1, CYP2E1; experiment: CYP2E1 inhibition, chlorzoxazone 6-hydroxylation in pooled HLMs; assay type: in vitro ADME
CYP2C9 = target: T4, CYP2C9 (Homo sapiens, UniProt P11712); experiment: CYP2C9 inhibition, diclofenac 4'-hydroxylation in pooled HLMs; assay type: in vitro ADME; details: DHM 100 μM
T4 construct: from tissue; host or cells: pooled human liver microsomes
Method: as §2, §3

CYP2C19 = target: T5, CYP2C19 (Homo sapiens, UniProt P33261); experiment: CYP2C19 inhibition, S-mephenytoin 4-hydroxylation in pooled HLMs; assay type: in vitro ADME; details: DHM 100 μM
T5 construct: from tissue; host or cells: pooled human liver microsomes
Method: as §2, §3

CYP2D6 [4] = target: T6, CYP2D6 (Homo sapiens, UniProt P10635); experiment: CYP2D6 inhibition, dextromethorphan O-demethylation in pooled HLMs; assay type: in vitro ADME
T6 construct: CYP2D6 catalyzed reactions (dextromethorphan O-demethylation) in pooled HLM; from tissue; host or cells: pooled human liver microsomes
Method: as §2, §4, §5, §6

CYP2D6 [5] = target: T6, CYP2D6; experiment: Time-dependent inhibition study of CYP2D6 in HLMs; assay type: in vitro ADME; details: DHM 20 μM, pre-incubation with HLM and NADPH for 30 min
Method: as §1

CYP2A6 = target: T7, CYP2A6 (Homo sapiens, UniProt P11509); experiment: CYP2A6 inhibition, coumarin 7-hydroxylation in pooled HLMs; assay type: in vitro ADME; details: DHM 100 μM
T7 construct: from tissue; host or cells: pooled human liver microsomes
T7 sequence (P11509 1-494): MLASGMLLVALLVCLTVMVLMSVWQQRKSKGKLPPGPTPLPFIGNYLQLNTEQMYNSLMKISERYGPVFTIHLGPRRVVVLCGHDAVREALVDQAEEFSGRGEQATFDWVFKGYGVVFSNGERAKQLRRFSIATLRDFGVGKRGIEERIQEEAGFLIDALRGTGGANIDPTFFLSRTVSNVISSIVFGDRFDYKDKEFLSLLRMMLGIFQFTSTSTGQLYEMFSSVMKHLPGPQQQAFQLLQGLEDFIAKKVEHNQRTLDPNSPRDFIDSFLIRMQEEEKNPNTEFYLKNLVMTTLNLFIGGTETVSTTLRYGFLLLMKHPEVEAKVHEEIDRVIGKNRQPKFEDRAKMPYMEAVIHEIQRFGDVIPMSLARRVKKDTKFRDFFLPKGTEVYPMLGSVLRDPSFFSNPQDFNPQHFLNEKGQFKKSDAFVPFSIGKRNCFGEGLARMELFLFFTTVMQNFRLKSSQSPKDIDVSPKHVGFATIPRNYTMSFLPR
Method: as §2, §3

[6] = parameters: method as in Zhang et al. [2007]; Tong et al. [2015]; details: rats, oral administration of 1564.8 mg/kg of Rattan Tea decoction; ref Zhang et al. [2007]; Tong et al. [2015]; cited from earlier work
CYP1A2 = target: T8, CYP1A2 (Homo sapiens, UniProt P05177); experiment: CYP1A2 inhibition, phenacetin O-deethylation in pooled HLMs; assay type: in vitro ADME; details: DHM 100 μM
T8 construct: from tissue; host or cells: pooled human liver microsomes
T8 sequence (P05177 1-516): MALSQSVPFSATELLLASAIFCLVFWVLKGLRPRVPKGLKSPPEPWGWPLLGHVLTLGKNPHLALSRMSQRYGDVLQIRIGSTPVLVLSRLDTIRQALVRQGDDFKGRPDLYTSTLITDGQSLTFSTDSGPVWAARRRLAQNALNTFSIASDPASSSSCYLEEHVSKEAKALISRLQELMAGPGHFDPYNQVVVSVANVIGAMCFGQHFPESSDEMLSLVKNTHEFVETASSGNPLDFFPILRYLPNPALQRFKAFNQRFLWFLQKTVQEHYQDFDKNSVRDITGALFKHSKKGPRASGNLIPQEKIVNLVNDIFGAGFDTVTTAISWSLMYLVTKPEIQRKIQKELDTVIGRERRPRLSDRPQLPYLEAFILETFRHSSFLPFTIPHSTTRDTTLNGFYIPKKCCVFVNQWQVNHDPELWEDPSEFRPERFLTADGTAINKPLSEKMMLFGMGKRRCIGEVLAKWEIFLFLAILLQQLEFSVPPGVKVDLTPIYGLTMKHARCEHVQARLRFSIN
Method: as §2, §3

CYP3A4 [7] = target: T3, CYP3A4; experiment: Time-dependent inhibition study of CYP3A4 in HLMs; assay type: in vitro ADME
Method: as §1
To determine the KI and kinact values for the inactivation of CYP3A4, the incubations were conducted using higher probe substrate concentrations (approximately four-fold Km values) and various concentrations of DHM (0–50 μM) after different preincubation times (0–30 min), with a two-step incubation scheme, as described above.

T3 sequence (P08684 whole entry): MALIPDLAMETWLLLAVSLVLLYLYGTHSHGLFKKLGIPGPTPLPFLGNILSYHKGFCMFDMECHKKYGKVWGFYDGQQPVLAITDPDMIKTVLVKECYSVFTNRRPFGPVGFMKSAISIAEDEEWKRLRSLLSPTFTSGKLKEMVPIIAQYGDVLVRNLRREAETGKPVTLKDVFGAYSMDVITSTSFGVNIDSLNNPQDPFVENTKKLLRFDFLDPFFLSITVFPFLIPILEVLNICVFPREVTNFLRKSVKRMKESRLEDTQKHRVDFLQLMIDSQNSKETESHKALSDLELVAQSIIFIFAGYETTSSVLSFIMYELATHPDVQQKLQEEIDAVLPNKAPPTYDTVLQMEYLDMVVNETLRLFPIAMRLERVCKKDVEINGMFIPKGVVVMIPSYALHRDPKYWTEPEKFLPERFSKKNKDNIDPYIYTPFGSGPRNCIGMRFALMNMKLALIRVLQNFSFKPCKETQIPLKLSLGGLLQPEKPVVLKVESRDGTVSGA
T1 sequence (P05181 whole entry): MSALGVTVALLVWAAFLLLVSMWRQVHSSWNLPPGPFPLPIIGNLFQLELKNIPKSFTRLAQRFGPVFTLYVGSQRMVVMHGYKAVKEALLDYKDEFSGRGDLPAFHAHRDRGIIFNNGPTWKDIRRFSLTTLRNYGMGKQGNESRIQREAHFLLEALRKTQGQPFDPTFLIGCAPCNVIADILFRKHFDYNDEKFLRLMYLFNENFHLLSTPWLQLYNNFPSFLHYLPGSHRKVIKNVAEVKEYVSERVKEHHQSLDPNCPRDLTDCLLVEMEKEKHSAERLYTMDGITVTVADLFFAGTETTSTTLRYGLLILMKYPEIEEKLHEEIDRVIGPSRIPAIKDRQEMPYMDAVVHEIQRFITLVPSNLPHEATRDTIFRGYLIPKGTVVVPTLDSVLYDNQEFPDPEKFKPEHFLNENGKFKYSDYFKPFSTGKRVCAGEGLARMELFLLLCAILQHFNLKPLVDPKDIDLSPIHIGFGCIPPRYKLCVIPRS
T6 sequence (P10635 whole entry): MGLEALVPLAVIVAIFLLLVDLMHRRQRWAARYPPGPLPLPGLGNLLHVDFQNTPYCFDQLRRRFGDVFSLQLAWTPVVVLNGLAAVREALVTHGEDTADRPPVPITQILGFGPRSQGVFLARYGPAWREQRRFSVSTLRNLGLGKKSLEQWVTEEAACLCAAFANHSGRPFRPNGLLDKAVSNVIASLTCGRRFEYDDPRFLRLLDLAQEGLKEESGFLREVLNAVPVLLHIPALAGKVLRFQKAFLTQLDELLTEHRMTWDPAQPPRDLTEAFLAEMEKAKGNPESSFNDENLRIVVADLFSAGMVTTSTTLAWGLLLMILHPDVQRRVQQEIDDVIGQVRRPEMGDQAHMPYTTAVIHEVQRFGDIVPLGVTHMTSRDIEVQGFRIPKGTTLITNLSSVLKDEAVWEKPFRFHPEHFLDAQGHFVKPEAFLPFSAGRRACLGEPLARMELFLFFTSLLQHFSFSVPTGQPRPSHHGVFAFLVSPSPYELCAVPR
T5 sequence (P33261 whole entry): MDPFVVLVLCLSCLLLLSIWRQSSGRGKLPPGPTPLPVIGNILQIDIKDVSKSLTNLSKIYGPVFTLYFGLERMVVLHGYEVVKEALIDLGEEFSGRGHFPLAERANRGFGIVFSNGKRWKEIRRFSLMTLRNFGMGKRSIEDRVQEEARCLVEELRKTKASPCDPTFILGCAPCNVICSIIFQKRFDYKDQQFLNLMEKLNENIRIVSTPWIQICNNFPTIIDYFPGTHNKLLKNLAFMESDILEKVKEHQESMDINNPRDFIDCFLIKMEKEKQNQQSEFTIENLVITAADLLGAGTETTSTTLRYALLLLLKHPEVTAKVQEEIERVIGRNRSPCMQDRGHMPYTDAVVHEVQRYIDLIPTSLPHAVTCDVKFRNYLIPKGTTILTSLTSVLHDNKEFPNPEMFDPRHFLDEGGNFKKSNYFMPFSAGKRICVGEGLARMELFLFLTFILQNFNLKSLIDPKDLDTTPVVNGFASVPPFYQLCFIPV
T4 sequence (P11712 whole entry): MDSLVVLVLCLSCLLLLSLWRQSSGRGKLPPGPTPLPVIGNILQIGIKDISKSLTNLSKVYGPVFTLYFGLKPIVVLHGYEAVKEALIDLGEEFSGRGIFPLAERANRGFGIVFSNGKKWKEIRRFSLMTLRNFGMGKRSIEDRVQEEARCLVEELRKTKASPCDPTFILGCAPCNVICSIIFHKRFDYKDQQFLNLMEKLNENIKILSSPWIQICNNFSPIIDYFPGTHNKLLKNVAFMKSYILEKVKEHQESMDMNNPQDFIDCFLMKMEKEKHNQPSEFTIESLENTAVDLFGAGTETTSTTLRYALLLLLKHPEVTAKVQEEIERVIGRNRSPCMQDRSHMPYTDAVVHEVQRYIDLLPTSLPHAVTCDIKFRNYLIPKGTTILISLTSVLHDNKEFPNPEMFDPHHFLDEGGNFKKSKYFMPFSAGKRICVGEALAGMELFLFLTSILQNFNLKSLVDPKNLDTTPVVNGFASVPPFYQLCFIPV

Time-dependent inhibition: activity of CYP2E1 after pre-incubation (CYP2E1 [1]): not affected
Inhibition of CYP2C8 activity (CYP2C8): did not inhibit
IC50 (CYP3A4 [2]; DHM 0–100 μM, pooled HLMs): 14.8 µM
Manner of inhibition of CYP3A4 (CYP3A4 [2]; Lineweaver–Burk plots): non-competitive
inhibition at 100 μM (CYP3A4 [2]; human, pooled human liver microsomes, pH 7.4, probe testosterone (6β-hydroxylation), DHM 100 μM, pooled HLMs, read-out: CYP3A4 activity inhibited to % of control activity): 87.7%
Ki (CYP3A4 [2]; secondary Lineweaver–Burk plot, testosterone 20–100 μM, pooled HLM): 6.06 µM
IC50 (CYP2E1 [3]; DHM 0–100 μM, pooled HLMs): 25.7 µM
Manner of inhibition of CYP2E1 (CYP2E1 [3]; Lineweaver–Burk plots): competitive
inhibition at 100 μM (CYP2E1 [3]; human, pooled human liver microsomes, pH 7.4, probe chlorzoxazone (6-hydroxylation), DHM 100 μM, pooled HLMs, read-out: CYP2E1 activity inhibited to % of control activity): 74.6%
Ki (CYP2E1 [3]; secondary Lineweaver–Burk plot, chlorzoxazone, DHM 0–50 μM, pooled HLM): 9.24 µM
Inhibition of CYP2C9 activity (CYP2C9): did not inhibit
Inhibition of CYP2C19 activity (CYP2C19): did not inhibit
IC50 (CYP2D6 [4]; DHM 0–100 μM, pooled HLMs): 22.7 µM
Manner of inhibition of CYP2D6 (CYP2D6 [4]; Lineweaver–Burk plots): competitive
inhibition at 100 μM (CYP2D6 [4]; human, pooled human liver microsomes, pH 7.4, probe dextromethorphan (O-demethylation), DHM 100 μM, pooled HLMs, read-out: CYP2D6 activity inhibited to % of control activity): 85.3%
Ki (CYP2D6 [4]; secondary Lineweaver–Burk plot, dextromethorphan 5–50 μM, DHM 0–50 μM, pooled HLM): 10.5 µM
Time-dependent inhibition: activity of CYP2D6 after pre-incubation (CYP2D6 [5]): not affected
Inhibition of CYP2A6 activity (CYP2A6): did not inhibit
Inhibition of CYP1A2 activity (CYP1A2): did not inhibit
Time-dependent inhibition: activity of CYP3A4 after pre-incubation (CYP3A4 [7]; DHM 20 μM, pre-incubation with HLM and NADPH for 30 min): decreased with the incubation time
KI (inactivation) (CYP3A4 [7]; human, human liver microsomes, DHM 0–50 μM, preincubation 0–30 min, non-linear regression, HLM): 12.2 µM
kinact (CYP3A4 [7]; human, human liver microsomes, DHM 0–50 μM, preincubation 0–30 min, non-linear regression, HLM, read-out: Kinact for inactivation of CYP3A4 (converted)): 0.00095 s⁻¹
CYP3A4 inactivated each minute (CYP3A4 [7]; saturating concentration of DHM incubated with HLM, implied by Kinact): approximately 5.7%
Compound: O=C1c2c(O)cc(O)cc2O[C@H](c2cc(O)c(O)c(O)c2)[C@H]1O [DHM, Dihydromyricetin]
Cmax [6]: 1700 ng/mL
